Assay results published in ChEMBL document CHEMBL3244053, “Structural modification study of bis(substituted aminoalkylamino)anthraquinones. An evaluation of the relationship of the [2-[(2-hydroxyethyl)amino]ethyl]amino side chain with antineoplastic activity” (1979).
The source made the active and inactive calls. No cut-off for these calls is given here.

Assays:
L1210 [1] = assay: Antineoplastic activity against mouse L1210 cells allografted in CDF1 mouse assessed as survival at 2 mg/kg qd for 9 days; assay type: functional, organism-based; parameters: dose 2 mg/kg
B16 [2] = assay: Antineoplastic activity against mouse B16 cells allografted in BDF1 mouse assessed as survival at 16 mg/kg qd for 9 days; assay type: functional, organism-based; parameters: dose 16 mg/kg
Colon 26 [3] = assay: Antineoplastic activity against mouse Colon 26 cells allografted in CDF1 mouse assessed as survival at 4 mg/kg qd for 9 days; assay type: functional, organism-based; parameters: dose 4 mg/kg
B16 [4] = assay: Antineoplastic activity against mouse B16 cells allografted in BDF1 mouse assessed as survival at 4 mg/kg qd for 9 days; assay type: functional, organism-based; parameters: dose 4 mg/kg
L1210 [5] = assay: Antineoplastic activity against mouse L1210 cells allografted in CDF1 mouse at 8 mg/kg qd for 9 days relative to control; assay type: functional
Colon 26 [6] = assay: Antineoplastic activity against mouse Colon 26 cells allografted in CDF1 mouse assessed as survival at 8 mg/kg qd for 9 days; assay type: functional, organism-based; parameters: dose 8 mg/kg
Colon 26 [7] = assay: Antineoplastic activity against mouse Colon 26 cells allografted in CDF1 mouse at 8 mg/kg qd for 9 days relative to control; assay type: functional
P388 [8] = assay: Antineoplastic activity against mouse P388 cells allografted in CDF1 mouse assessed as survival at 4 mg/kg qd for 9 days; assay type: functional, organism-based; parameters: dose 4 mg/kg
L1210 [9] = assay: Antineoplastic activity against mouse L1210 cells allografted in CDF1 mouse assessed as survival at 16 mg/kg qd for 9 days; assay type: functional, organism-based; parameters: dose 16 mg/kg
P388 [10] = assay: Antineoplastic activity against mouse P388 cells allografted in CDF1 mouse at 4 mg/kg qd for 9 days relative to control; assay type: functional
B16 [11] = assay: Antineoplastic activity against mouse B16 cells allografted in BDF1 mouse at 4 mg/kg qd for 9 days relative to control; assay type: functional
B16 [12] = assay: Antineoplastic activity against mouse B16 cells allografted in BDF1 mouse at 8 mg/kg qd for 9 days relative to control; assay type: functional
B16 [13] = assay: Antineoplastic activity against mouse B16 cells allografted in BDF1 mouse at 16 mg/kg qd for 9 days relative to control; assay type: functional
P388 [14] = assay: Antineoplastic activity against mouse P388 cells allografted in CDF1 mouse at 8 mg/kg qd for 9 days relative to control; assay type: functional
P388 [15] = assay: Antineoplastic activity against mouse P388 cells allografted in CDF1 mouse assessed as survival at 1 mg/kg qd for 9 days; assay type: functional, organism-based; parameters: dose 1 mg/kg
B16 [16] = assay: Antineoplastic activity against mouse B16 cells allografted in BDF1 mouse at 2 mg/kg qd for 9 days relative to control; assay type: functional
L1210 [17] = assay: Antineoplastic activity against mouse L1210 cells allografted in CDF1 mouse at 16 mg/kg qd for 9 days relative to control; assay type: functional
P388 [18] = assay: Antineoplastic activity against mouse P388 cells allografted in CDF1 mouse at 16 mg/kg qd for 9 days relative to control; assay type: functional
B16 [19] = assay: Antineoplastic activity against mouse B16 cells allografted in BDF1 mouse assessed as survival at 8 mg/kg qd for 9 days; assay type: functional, organism-based; parameters: dose 8 mg/kg
P388 [20] = assay: Antineoplastic activity against mouse P388 cells allografted in CDF1 mouse assessed as survival at 8 mg/kg qd for 9 days; assay type: functional, organism-based; parameters: dose 8 mg/kg
L1210 [21] = assay: Antineoplastic activity against mouse L1210 cells allografted in CDF1 mouse at 4 mg/kg qd for 9 days relative to control; assay type: functional
Colon 26 [22] = assay: Antineoplastic activity against mouse Colon 26 cells allografted in CDF1 mouse assessed as survival at 2 mg/kg qd for 9 days; assay type: functional, organism-based; parameters: dose 2 mg/kg
L1210 [23] = assay: Antineoplastic activity against mouse L1210 cells allografted in CDF1 mouse at 2 mg/kg qd for 9 days relative to control; assay type: functional
P388 [24] = assay: Antineoplastic activity against mouse P388 cells allografted in CDF1 mouse assessed as survival at 2 mg/kg qd for 9 days; assay type: functional, organism-based; parameters: dose 2 mg/kg
P388 [25] = assay: Antineoplastic activity against mouse P388 cells allografted in CDF1 mouse assessed as survival at 16 mg/kg qd for 9 days; assay type: functional, organism-based; parameters: dose 16 mg/kg
P388 [26] = assay: Antineoplastic activity against mouse P388 cells allografted in CDF1 mouse at 2 mg/kg qd for 9 days relative to control; assay type: functional
B16 [27] = assay: Antineoplastic activity against mouse B16 cells allografted in BDF1 mouse assessed as survival at 2 mg/kg qd for 9 days; assay type: functional, organism-based; parameters: dose 2 mg/kg
Colon 26 [28] = assay: Antineoplastic activity against mouse Colon 26 cells allografted in CDF1 mouse at 4 mg/kg qd for 9 days relative to control; assay type: functional
Colon 26 [29] = assay: Antineoplastic activity against mouse Colon 26 cells allografted in CDF1 mouse at 2 mg/kg qd for 9 days relative to control; assay type: functional
P388 [30] = assay: Antineoplastic activity against mouse P388 cells allografted in CDF1 mouse at 1 mg/kg qd for 9 days relative to control; assay type: functional
L1210 [31] = assay: Antineoplastic activity against mouse L1210 cells allografted in CDF1 mouse assessed as survival at 4 mg/kg qd for 9 days; assay type: functional, organism-based; parameters: dose 4 mg/kg
L1210 [32] = assay: Antineoplastic activity against mouse L1210 cells allografted in CDF1 mouse assessed as survival at 8 mg/kg qd for 9 days; assay type: functional, organism-based; parameters: dose 8 mg/kg
B16 [33] = assay: Antineoplastic activity against mouse B16 cells allografted in BDF1 mouse at 1 mg/kg qd for 9 days relative to control; assay type: functional
B16 [34] = assay: Antineoplastic activity against mouse B16 cells allografted in BDF1 mouse assessed as survival at 1 mg/kg qd for 9 days; assay type: functional, organism-based; parameters: dose 1 mg/kg

Compound: O=C1c2ccccc2C(=O)c2c(NCCNCCO)ccc(NCCNCCO)c21 [AMETANTRONE]
- Activity (L1210 [1]): Active
- Activity (B16 [2]): Active
- Activity (Colon 26 [3]): Active
- Activity (B16 [4]): Active
- T/C (L1210 [5]): 288%
- Activity (Colon 26 [6]): Active
- T/C (Colon 26 [7]): 201%
- Activity (P388 [8]): Active
- Activity (L1210 [9]): Active
- T/C (P388 [10]): 219%
- T/C (B16 [11]): 194%
- T/C (B16 [12]): 204%
- T/C (B16 [13]): 225%
- T/C (P388 [14]): 254%
- Activity (P388 [15]): Active
- T/C (B16 [16]): 172%
- T/C (L1210 [17]): 234%
- T/C (P388 [18]): 321%
- Activity (B16 [19]): Active
- Activity (P388 [20]): Active
- T/C (L1210 [21]): 193%
- Activity (Colon 26 [22]): Active
- T/C (L1210 [23]): 180%
- Activity (P388 [24]): Active
- Activity (P388 [25]): Active
- T/C (P388 [26]): 200%
- Activity (B16 [27]): Active
- T/C (Colon 26 [28]): 177%
- T/C (Colon 26 [29]): 132%
- T/C (P388 [30]): 155%
- Activity (L1210 [31]): Active
- Activity (L1210 [32]): Active
- T/C (B16 [33]): 151%
- Activity (B16 [34]): Active
